Source: publication PMC6027421 (Pharmaceuticals, 2018)
Read-outs that look alike come from different tables or passages of the source.

Columns and labels:
CYP17A1_WT [1] = target: T1, CYP17A1_WT (Homo sapiens, UniProt P05093); assay: Spectral substrate/inhibitor-binding assay, WT CYP17A1; conditions: 50 nM protein, 22 °C
T1 sequence (P05093 1-508): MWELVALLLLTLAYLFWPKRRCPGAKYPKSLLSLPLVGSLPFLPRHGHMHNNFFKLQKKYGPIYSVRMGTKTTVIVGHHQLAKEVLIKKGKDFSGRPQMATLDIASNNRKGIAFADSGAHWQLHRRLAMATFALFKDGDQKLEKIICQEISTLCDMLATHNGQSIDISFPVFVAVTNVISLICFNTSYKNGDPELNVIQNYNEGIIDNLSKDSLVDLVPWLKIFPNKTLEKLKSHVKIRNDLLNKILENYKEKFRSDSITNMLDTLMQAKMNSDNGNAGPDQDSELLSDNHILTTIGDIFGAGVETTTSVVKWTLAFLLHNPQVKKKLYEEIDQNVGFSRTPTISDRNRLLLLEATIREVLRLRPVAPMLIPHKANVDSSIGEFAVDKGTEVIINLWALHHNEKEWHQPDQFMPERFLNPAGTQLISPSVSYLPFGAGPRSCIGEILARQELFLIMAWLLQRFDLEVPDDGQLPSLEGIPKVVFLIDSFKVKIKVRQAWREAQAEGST
Experimental: Binding of steroid substrates to CYP17A1 was measured by recording the substrate-binding spectra in the range of 340–500 nm on a Perkin Elmer Lambda 25 spectrophotometer. A change in heme absorbance is observed when water molecules at the active site are replaced by steroid substrates. […] To accurately measure the tight binding substrates and inhibitors, a cuvette with 100 mm path length was employed and protein concentration was kept at 50 nM. […] All substrates and abiraterone were dissolved in ethanol and an equal amount of ethanol was added to the reference cuvette and the final concentration of ethanol added to the cuvettes was kept below 2%. After each addition of the compounds, cuvettes were incubated for 5 min at 22 °C before recording the spectra. […] Data were fitted with GraphPad Prism based on the tight binding pattern of substrates to a single binding site.

CYP17A1 WT [2] = test system: T2, CYP17A1 WT; assay: 17α-hydroxylase enzyme kinetics (PROG to 17OH-PROG), WT CYP17A1; format: biochemical, human
T2 construct: (His)4; made in house; host or cells: E. coli JM109
Experimental: (§1) To assess 17α-hydroxylase activity, 10 pmol of CYP17A1 along with 20 pmol purified human POR [17, 31, 32, 34, 62] […] Enzyme kinetic calculations were performed using non-linear regression curve fitting with Prism (GraphPad Software Inc., San Diego, CA, USA). Data represent the mean of three independent experiments.

CYP17A1_WT [3] = target: T1, CYP17A1_WT; assay: Inhibition of PROG 17α-hydroxylation, WT CYP17A1; format: biochemical
Experimental: as §1

CYP17A1 WT [4] = conditions: 17OH-PREG as substrate, with cytochrome b5

Kd (CYP17A1_WT [1]; read-out: Kd) | IC50 (CYP17A1_WT [3]) | SMILES | Vmax, 17α-Hydroxylase PROG to 17OH-PROG (CYP17A1 WT [2]; PROG as substrate) | Km (CYP17A1 WT [2]; read-out: Km, 17α-Hydroxylase PROG to 17OH-PROG, PROG as substrate, CYP17A1:POR 1:2, 37 °C) | Cat Eff, 17α-Hydroxylase PROG to 17OH-PROG (CYP17A1 WT [2]; relative to WT) | Kd (CYP17A1_WT [1]; Kd) | Vmax, 17,20 Lyase 17OH-PREG to DHEA (CYP17A1 WT [4]) | Km (CYP17A1 WT [4]; read-out: Km, 17,20 Lyase 17OH-PREG to DHEA)
85 ± 23 nM | 40 ± 10 nM | C[C@]12CC[C@H](O)CC1=CC[C@@H]1[C@@H]2CC[C@]2(C)C(c3cccnc3)=CC[C@@H]12 [Abiraterone, abiraterone] |  |  |  |  |  | 
62 ± 17 nM | 900 ± 150 nM | CC(=O)[C@H]1CC[C@H]2[C@@H]3CC=C4C[C@@H](O)CC[C@]4(C)[C@H]3CC[C@]12C [PREG, pregnenolone] |  |  |  |  |  | 

SMILES | Kd (CYP17A1_WT [1]; read-out: Kd) | IC50 (CYP17A1_WT [3]) | Vmax, 17α-Hydroxylase PROG to 17OH-PROG (CYP17A1 WT [2]; PROG as substrate) | Km (CYP17A1 WT [2]; read-out: Km, 17α-Hydroxylase PROG to 17OH-PROG, PROG as substrate, CYP17A1:POR 1:2, 37 °C) | Cat Eff, 17α-Hydroxylase PROG to 17OH-PROG (CYP17A1 WT [2]; relative to WT) | Kd (CYP17A1_WT [1]; Kd) | Vmax, 17,20 Lyase 17OH-PREG to DHEA (CYP17A1 WT [4]) | Km (CYP17A1 WT [4]; read-out: Km, 17,20 Lyase 17OH-PREG to DHEA)
CC(=O)[C@H]1CC[C@H]2[C@@H]3CCC4=CC(=O)CC[C@]4(C)[C@H]3CC[C@]12C [PROG, Progesterone] | 163 ± 29 nM |  | 0.71 min⁻¹ | 6.1 ± 0.7 µM | 100% |  |  | 
CC(=O)[C@@]1(O)CC[C@H]2[C@@H]3CC=C4C[C@@H](O)CC[C@]4(C)[C@H]3CC[C@@]21C [17OH-PREG, 17α-hydroxypregnenolone] |  | 1700 ± 200 nM |  |  |  | 142 ± 38 nM | 0.025 ± 0.004 min⁻¹ | 0.92 ± 0.07 µM
